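Briefly, cells in 96-well plates were exposed to five compound concentrations for 48 h, and endpoints were estimated by linear interpolation. Definition used: TGI = concentration required for complete inhibition of growth.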
Tests used:
Assay in all cases: NCI tumour cell line growth inhibition, 48 h
[1] = system: KM20L2 colon
[2] = system: UACC-62 melanoma
[3] = system: SF-268 CNS
[4] = system: LXFL 529 NSCLC
[5] = system: OVCAR-5 ovarian
[6] = system: HOP-92 NSCLC
[7] = system: CAKI-1 renal
[8] = system: NCI-H226 lung
[9] = system: SW-620 colon
[10] = system: LOX IMVI melanoma
[11] = system: NCI-H460 lung
[12] = system: SNB-19 CNS
[13] = system: SNB-75 CNS
[14] = system: NCI-H522 lung
[15] = system: EKVX NSCLC
[16] = system: A498 renal
[17] = system: SK-MEL-5 melanoma
[18] = system: COLO 205 colon
[19] = system: HOP-18 NSCLC
[20] = system: 786-0 renal
[21] = system: HCC-2998 colon
[22] = system: OVCAR-3 ovarian
[23] = system: KM12 colon
[24] = system: DLD-1 colon
[25] = system: K-562 leukemia
[26] = system: IGROV1 ovarian
[27] = system: SF-539 CNS
[28] = system: HCT-116 colon
[29] = system: HT29 colon
[30] = system: SK-MEL-28 melanoma
[31] = system: TK-10 renal
[32] = system: RPMI-8226 leukemia
[33] = system: SNB-78 CNS
[34] = system: HOP-62 NSCLC
[35] = system: OVCAR-4 ovarian
[36] = system: MALME-3M melanoma
[37] = system: DMS 273 small cell lung
[38] = system: A549 NSCLC
[39] = system: M14 melanoma
[40] = system: SK-MEL-2 melanoma
[41] = system: M19-MEL melanoma
[42] = system: UO-31 renal
[43] = system: ACHN renal
[44] = system: MOLT-4 leukemia
[45] = system: U251 CNS
[46] = system: CCRF-CEM leukemia
[47] = system: SF-295 CNS
[48] = system: UACC-257 melanoma
[49] = system: SK-OV-3 ovarian
[50] = system: DMS 114 small cell lung
[51] = system: SR leukemia
[52] = system: RXF-631 renal
[53] = system: NCI-H23 lung
[54] = system: SN12C renal
[55] = system: OVCAR-8 ovarian
[56] = system: RXF 393 renal
[57] = system: HL-60(TB) leukemia
[58] = system: HCT-15 colon
[59] = system: XF 498 CNS

Measured: TGI

COc1cccc(NC(=O)CC(=O)N2NC(C)C(N=Nc3cccc(C(=O)O)c3)C2=O)c1 (centres undefined)
not listed: [56] | [57] | [58] | [59]
> 100 µM: all other assays above

CC1(C)C2CCC3(OCCO3)C1C1OC12 (centres undefined)
not listed: [2] | [4] | [21] | [24] | [26] | [34] | [41] | [50] | [51] | [54]
> 100 µM: all other assays above

Reference: PubChem BioAssay (NCI)
